Test results from patent publication US10517889B2, “Modulators of SMAD7 expression” (Ionis Pharmaceuticals, Inc., priority 2017, dated 2019).
Strand notation (5' to 3'): a small letter for the sugar, then the base; units joined by * are phosphorothioate-linked, units joined directly phosphodiester-linked; [ ] holds rarer units or linkages, { } end groups; capitals alone tell only the bases. e = 2'-O-(2-methoxyethyl) (MOE); [5mC] = 5-methylcytosine; d = 2'-deoxy (DNA)

Each substance was assayed on human SMAD7 mRNA (assay: Antisense inhibition of human SMAD7 mRNA expression in Hep3B cells by 5-10-5 MOE gapmers, single concentration, electroporation, RT-PCR (Example 1, Study 1 and 2)). Conditions: Study 2, electroporation with 15,000 nM antisense oligonucleotide, 5-10-5 MOE gapmers targeting SEQ ID NO: 1 and 2.
Assay type: cell-based
Summary of the method: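 Hep3B cells (20,000/well) electroporated with 5-10-5 MOE gapmer at 5,000 nM or 15,000 nM for approximately 24 h. SMAD7 mRNA quantified by real-time PCR with primer probe set RTS5062 and normalized to RIBOGREEN total RNA. Values are percent inhibition relative to untreated controls.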

Going from “771519 (antisense eA*eA*eA*eG*e[5mC]*dA*dA*dG*d[5mC]*dA*d[5mC]*dT*d[5mC]*dA*dG*eG*eA*eG*eG*eA) [compound 771519]” to “771524 (antisense eT*eT*eG*e[5mC]*eA*dT*dG*dA*dA*dA*dA*dG*d[5mC]*dA*dA*eG*e[5mC]*eA*e[5mC]*eT) [compound 771524]”, the “% inhibition of SMAD7 mRNA expression” value falls from 25% to 19%.

Going from “771526 (antisense eG*eT*eT*eT*eG*d[5mC]*dA*dT*dG*dA*dA*dA*dA*dG*d[5mC]*eA*eA*eG*e[5mC]*eA) [compound 771526]” to “771527 (antisense eG*eA*eG*eT*eT*dT*dG*d[5mC]*dA*dT*dG*dA*dA*dA*dA*eG*e[5mC]*eA*eA*eG) [compound 771527]”, the “% inhibition of SMAD7 mRNA expression” value falls from 26% to 0%.

“771532 (antisense eA*eG*eA*eA*eG*dA*dA*dA*dA*d[5mC]*d[5mC]*dA*dA*d[5mC]*d[5mC]*eA*eA*e[5mC]*eA*eA) [compound 771532]” and “771534 (antisense eA*eA*e[5mC]*eA*eG*dA*dA*d[5mC]*dA*d[5mC]*dA*dA*dA*d[5mC]*dG*eA*eG*eG*eA*e[5mC]) [compound 771534]” are the same in “% inhibition of SMAD7 mRNA expression” value: 0% for the first, 0% for the second.

First: 771535 (antisense eA*eA*e[5mC]*eA*eA*dA*dA*d[5mC]*dA*dG*dA*dA*d[5mC]*dA*d[5mC]*eA*eA*eA*e[5mC]*eG) [compound 771535]
Second: 771540 (antisense eT*e[5mC]*eA*eT*eA*dA*dG*d[5mC]*dT*dA*dT*dT*dT*d[5mC]*dT*e[5mC]*eA*eA*eA*eG) [compound 771540]
The “% inhibition of SMAD7 mRNA expression” value of the first is higher: 17% for the first, 0% for the second.

Compared with “771542 (antisense eA*e[5mC]*eA*eA*eT*dT*d[5mC]*dT*dT*dT*dT*d[5mC]*dA*dT*dA*eA*eG*e[5mC]*eT*eA) [compound 771542]”, “771543 (antisense e[5mC]*e[5mC]*e[5mC]*e[5mC]*eA*dA*d[5mC]*dA*dA*dT*dT*d[5mC]*dT*dT*dT*eT*e[5mC]*eA*eT*eA) [compound 771543]” is higher in “% inhibition of SMAD7 mRNA expression” value: 0% for the first, 36% for the second.

Going from “771548 (antisense eG*eG*eT*eG*eT*d[5mC]*d[5mC]*dT*dG*d[5mC]*d[5mC]*dG*dA*dT*d[5mC]*eA*eT*eA*e[5mC]*e[5mC]) [compound 771548]” to “771550 (antisense eT*eG*e[5mC]*eT*eT*d[5mC]*d[5mC]*d[5mC]*d[5mC]*dT*d[5mC]*dT*dT*d[5mC]*d[5mC]*eT*eA*eT*e[5mC]*eA) [compound 771550]”, the “% inhibition of SMAD7 mRNA expression” value falls from 19% to 4%.

Going from “771551 (antisense eA*eT*eT*eT*e[5mC]*dT*dG*d[5mC]*dT*dT*d[5mC]*d[5mC]*d[5mC]*d[5mC]*dT*e[5mC]*eT*eT*e[5mC]*e[5mC]) [compound 771551]” to “771558 (antisense eA*eA*eA*eT*eG*dA*dT*dG*dA*d[5mC]*d[5mC]*dG*d[5mC]*d[5mC]*d[5mC]*e[5mC]*e[5mC]*e[5mC]*eT*eT) [compound 771558]”, the “% inhibition of SMAD7 mRNA expression” value falls from 18% to 7%.

Compared with “771559 (antisense eA*eA*eG*eT*eG*dA*dA*dA*dT*dG*dA*dT*dG*dA*d[5mC]*e[5mC]*eG*e[5mC]*e[5mC]*e[5mC]) [compound 771559]”, “771564 (antisense eG*e[5mC]*e[5mC]*eG*e[5mC]*dA*d[5mC]*dA*d[5mC]*dT*d[5mC]*dA*d[5mC]*dA*d[5mC]*eT*e[5mC]*eA*e[5mC]*eA) [compound 771564]” is lower in “% inhibition of SMAD7 mRNA expression” value: 49% for the first, 28% for the second.

Going from “771566 (antisense eG*eA*e[5mC]*eA*e[5mC]*dA*dA*dA*dA*d[5mC]*dA*dA*dA*dG*dA*eG*e[5mC]*eA*e[5mC]*eG) [compound 771566]” to “771567 (antisense eG*eG*eG*eA*e[5mC]*dA*dT*d[5mC]*d[5mC]*dA*dT*dA*dA*dG*dA*eG*eA*e[5mC]*eA*e[5mC]) [compound 771567]”, the “% inhibition of SMAD7 mRNA expression” value rises from 28% to 39%.

Same assay, conditions: electroporation with 15,000 nM antisense oligonucleotide (Study 2), 5-10-5 MOE gapmers targeting SEQ ID NO: 1 and 2

Going from “771520 (antisense eA*eT*eG*eA*eA*dA*dA*dG*d[5mC]*dA*dA*dG*d[5mC]*dA*d[5mC]*eT*e[5mC]*eA*eG*eG) [compound 771520]” to “771528 (antisense eA*eA*eA*eG*eA*dG*dT*dT*dT*dG*d[5mC]*dA*dT*dG*dA*eA*eA*eA*eG*e[5mC]) [compound 771528]”, the “% Inhibition of SMAD7 mRNA” value falls from 37% to 12%.

Compared with “771536 (antisense eA*eG*e[5mC]*eG*eA*dA*dA*d[5mC]*dA*dA*dA*dA*d[5mC]*dA*dG*eA*eA*e[5mC]*eA*e[5mC]) [compound 771536]”, “771544 (antisense eA*eA*eA*eA*e[5mC]*d[5mC]*d[5mC]*d[5mC]*d[5mC]*dA*dA*d[5mC]*dA*dA*dT*eT*e[5mC]*eT*eT*eT) [compound 771544]” is lower in “% Inhibition of SMAD7 mRNA” value: 25% for the first, 16% for the second.

For “771560 (antisense e[5mC]*eT*eG*eA*e[5mC]*dA*dA*dG*dT*dG*dA*dA*dA*dT*dG*eA*eT*eG*eA*e[5mC]) [compound 771560]”, the “% Inhibition of SMAD7 mRNA” value was 0%.

Same assay, conditions: electroporation, 15,000 nM antisense oligonucleotide (Study 2), 5-10-5 MOE gapmers targeting SEQ ID NO: 1 and 2

First: 771520 (antisense eA*eT*eG*eA*eA*dA*dA*dG*d[5mC]*dA*dA*dG*d[5mC]*dA*d[5mC]*eT*e[5mC]*eA*eG*eG) [compound 771520]
Second: 771521 (antisense e[5mC]*eA*eT*eG*eA*dA*dA*dA*dG*d[5mC]*dA*dA*dG*d[5mC]*dA*e[5mC]*eT*e[5mC]*eA*eG) [compound 771521]
The “% inhibition of SMAD7 mRNA expression” value of the first is lower: 12% for the first, 33% for the second.

Compared with “771522 (antisense eG*e[5mC]*eA*eT*eG*dA*dA*dA*dA*dG*d[5mC]*dA*dA*dG*d[5mC]*eA*e[5mC]*eT*e[5mC]*eA) [compound 771522]”, “771528 (antisense eA*eA*eA*eG*eA*dG*dT*dT*dT*dG*d[5mC]*dA*dT*dG*dA*eA*eA*eA*eG*e[5mC]) [compound 771528]” is lower in “% inhibition of SMAD7 mRNA expression” value: 29% for the first, 4% for the second.

First: 771529 (antisense e[5mC]*eG*eA*e[5mC]*e[5mC]*dA*dA*dA*dG*dA*dG*dT*dT*dT*dG*e[5mC]*eA*eT*eG*eA) [compound 771529]
Second: 771530 (antisense eA*eA*eA*eA*eA*d[5mC]*dG*dA*d[5mC]*d[5mC]*dA*dA*dA*dG*dA*eG*eT*eT*eT*eG) [compound 771530]
The “% inhibition of SMAD7 mRNA expression” value of the first is lower: 0% for the first, 16% for the second.

Compared with “771536 (antisense eA*eG*e[5mC]*eG*eA*dA*dA*d[5mC]*dA*dA*dA*dA*d[5mC]*dA*dG*eA*eA*e[5mC]*eA*e[5mC]) [compound 771536]”, “771537 (antisense e[5mC]*eA*eA*eA*eG*dA*dG*d[5mC]*dG*dA*dA*dA*d[5mC]*dA*dA*eA*eA*e[5mC]*eA*eG) [compound 771537]” is higher in “% inhibition of SMAD7 mRNA expression” value: 0% for the first, 16% for the second.

Compared with “771538 (antisense eT*eT*eT*e[5mC]*eT*d[5mC]*dA*dA*dA*dG*dA*dG*d[5mC]*dG*dA*eA*eA*e[5mC]*eA*eA) [compound 771538]”, “771544 (antisense eA*eA*eA*eA*e[5mC]*d[5mC]*d[5mC]*d[5mC]*d[5mC]*dA*dA*d[5mC]*dA*dA*dT*eT*e[5mC]*eT*eT*eT) [compound 771544]” is lower in “% inhibition of SMAD7 mRNA expression” value: 24% for the first, 0% for the second.

First: 771545 (antisense e[5mC]*e[5mC]*eA*eA*eA*dA*dA*dA*dA*d[5mC]*d[5mC]*d[5mC]*d[5mC]*d[5mC]*dA*eA*e[5mC]*eA*eA*eT) [compound 771545]
Second: 771546 (antisense eT*eA*e[5mC]*e[5mC]*eT*dG*d[5mC]*d[5mC]*d[5mC]*d[5mC]*dT*dT*d[5mC]*dT*dT*e[5mC]*e[5mC]*eA*eA*eA) [compound 771546]
The “% inhibition of SMAD7 mRNA expression” value of the first is lower: 21% for the first, 26% for the second.

First: 771553 (antisense eT*eG*eG*eT*eG*d[5mC]*dT*dT*dG*dG*dA*dT*dT*dT*d[5mC]*eT*eG*e[5mC]*eT*eT) [compound 771553]
Second: 771554 (antisense eT*eT*eT*eG*eG*dT*dG*dG*dT*dG*d[5mC]*dT*dT*dG*dG*eA*eT*eT*eT*e[5mC]) [compound 771554]
The “% inhibition of SMAD7 mRNA expression” value of the first is higher: 38% for the first, 20% for the second.

First: 771560 (antisense e[5mC]*eT*eG*eA*e[5mC]*dA*dA*dG*dT*dG*dA*dA*dA*dT*dG*eA*eT*eG*eA*e[5mC]) [compound 771560]
Second: 771561 (antisense e[5mC]*eA*e[5mC]*eT*e[5mC]*d[5mC]*dT*dG*dA*d[5mC]*dA*dA*dG*dT*dG*eA*eA*eA*eT*eG) [compound 771561]
The “% inhibition of SMAD7 mRNA expression” value of the first is lower: 0% for the first, 30% for the second.

With “771562 (antisense eA*e[5mC]*eA*e[5mC]*eA*d[5mC]*dA*d[5mC]*dT*d[5mC]*d[5mC]*dT*dG*dA*d[5mC]*eA*eA*eG*eT*eG) [compound 771562]” the “% inhibition of SMAD7 mRNA expression” value was 30%.

Same assay, conditions: electroporation, 15,000 nM, approximately 24 hours, relative to untreated control cells, gapmers targeting SEQ ID NO: 1 and 2

First: 771525 (antisense eT*eT*eT*eG*e[5mC]*dA*dT*dG*dA*dA*dA*dA*dG*d[5mC]*dA*eA*eG*e[5mC]*eA*e[5mC]) [compound 771525]
Second: 771533 (antisense e[5mC]*eA*eA*eA*e[5mC]*dG*dA*dG*dG*dA*d[5mC]*dG*dA*dG*dA*eA*eG*eA*eA*eG) [compound 771533]
The “% inhibition of SMAD7 mRNA expression” value of the first is higher: 28% for the first, 2% for the second.

Compared with “771541 (antisense eT*e[5mC]*eT*eT*eT*dT*d[5mC]*dA*dT*dA*dA*dG*d[5mC]*dT*dA*eT*eT*eT*e[5mC]*eT) [compound 771541]”, “771549 (antisense e[5mC]*e[5mC]*eT*e[5mC]*eT*dT*d[5mC]*d[5mC]*dT*dA*dT*d[5mC]*dA*dG*dG*eG*eT*eG*eT*e[5mC]) [compound 771549]” is higher in “% inhibition of SMAD7 mRNA expression” value: 35% for the first, 49% for the second.

First: 771557 (antisense eA*eT*eG*eA*e[5mC]*d[5mC]*dG*d[5mC]*d[5mC]*d[5mC]*d[5mC]*d[5mC]*d[5mC]*dT*dT*e[5mC]*eA*eT*eA*e[5mC]) [compound 771557]
Second: 771565 (antisense e[5mC]*eT*eG*e[5mC]*e[5mC]*dG*d[5mC]*dT*d[5mC]*d[5mC]*dT*dG*d[5mC]*dA*d[5mC]*eA*e[5mC]*eG*e[5mC]*eG) [compound 771565]
The “% inhibition of SMAD7 mRNA expression” value of the first is lower: 19% for the first, 55% for the second.
